Experimental data reported in patent US20070093465A1, “Cephem compound” (priority 2003, published 2007).
≈ marks a conversion by molar mass, not a printed value.

What was measured:
Experiment in all cases: Bioactivity: growth inhibition / minimal inhibitory concentration in liquid culture
Type in all cases: cell-based
[1] = test system: Escherichia coli ESS; settings: 48 h, E. coli ESS, liquid 2x TY, microtiterplates incubated 2 days at 25 degrees Celsius, 550 rpm
Text: (§1) The adipoyl-7-amino-3-carbamoyloxymethyl-3-cephem-4-carboxylic acid prepared according to Example 3 was used to evaluate its activity versus different bacteria. Bacteria used were: Escherichia coli ESS [xxxref komt nogxx], Micrococcus luteus DSM 348 [Andrade, A. C., Van Nistelrooy, J. G. M., Peery, R. B., Skatrud, P. L., De Waard, M. A., 2000, The role of ABC transporters from Aspergillus nidulans in protection against cytotoxic agents and in antibiotic production] and Bacillus subtilis ATCC 6633 [xxxref komt nogxx] The bacteria were grown overnight in liquid 2× TY [xxxref komt nogxx] at 37 degrees and 280 rotations per minute and subsequently diluted 1000-fold in fresh medium. Two ml deep-well microtiterplates were inoculated with 1 ml of the diluted bacterial cultures and different concentrations of adipoyl-7-amino-3-carbamoyloxymethyl-3-cephem-4-carboxylic acid (adipoyl-ACCA or Ad-ACCA) were added to individual wells wells. As control several other active and less-active b-lactams were used: 6-APA, Adipoyl-6-APA, 7-ADCA, adipoyl-7-ADCA, 7-ACA, cephalosporinC and cefuroxime. The microtiterplates were incubated for 2 days at 25 degrees Celsius and 550 rotations per minute.
(§2) The results for growth inhibition by adipoyl-7-ADCA, adipoyl-ACCA and cefuroxime are summarized in FIGS. 14 (B. subtilis), 15 (E. coli) and 16 (M. luteus).
(§3) The minimal inhibitory concentrations of adipoyl-7-amino-3-carbamoyloxymethyl-3-cephem-4-carboxylic acid for B. subtilis ATCC 6633, E. coli ESS and M. luteus DSM 348 were 4, 7 and 7 uM, respectively.

[2] = test system: Micrococcus luteus DSM 348; settings: DSM348, 48 h, M. luteus DSM 348, liquid 2x TY, microtiterplates incubated 2 days at 25 degrees Celsius, 550 rpm
Text: as §1, §2, §3

[3] = test system: Bacillus subtilis ATCC 6633; settings: ATCC6633, 48 h, B. subtilis ATCC 6633, liquid 2x TY, microtiterplates incubated 2 days at 25 degrees Celsius, 550 rpm
Text: as §1, §2, §3

## NC(=O)OCC1=C(C(=O)O)N2C(=O)[C@@H](NC(=O)CCCCC(=O)O)[C@H]2SC1 [adipoyl-7-amino-3-carbamoyloxymethyl-3-cephem-4-carboxylic acid]
[1]
  MIC: 7 µM (≈ 2.81 µg/mL)
[2]
  MIC: 7 µM (≈ 2.81 µg/mL)
[3]
  MIC: 4 µM (≈ 1.61 µg/mL)
